Here are results for 17 compounds from ChEMBL document CHEMBL5518246, “Discovery of Small Molecule Interleukin 17A Inhibitors with Novel Binding Mode and Stoichiometry: Optimization of DNA-Encoded Chemical Library Hits to In Vivo Active Compounds” (J Med Chem, 2024).

Converted amounts (≈) assume the structure as drawn.

The nature of series [1]: Unbound plasma clearance in iv dosed CD-1 mouse measured after 24 hrs. The series is classed as ADME, organism-based. To be noted: in vivo.
The nature of series [2]: Metabolic stability in human liver microsomes assessed as unbound intrinsic clearance at 0.5 uM measured after 4 hrs. The series is classed as ADME, Microsome. Background: Liver microsomes are vesicles of endoplasmic reticulum, rich in cytochrome P450 enzymes.
Series [3] can be described thus: Thermodynamic solubility of the compound at pH 7.4 measured after 48 hrs by UHPLC analysis. The series is classed as physicochemical. The settings on record: buffer, read-out: Therm_solubility.
Series [4] can be described thus: Oral bioavailability in mouse at 10 mg/kg. The series is classed as ADME, organism-based. To be noted: in vivo.
Series [5] in a line: Plasma clearance in iv dosed CD-1 mouse measured after 24 hrs. The series is classed as ADME, organism-based.
The nature of series [6]: Oral bioavailability in mouse at 1 mg/kg. The series is classed as ADME, organism-based. The settings on record: in vivo.
Series [7] is described as follows: Thermodynamic solubility of the compound in FaSSIF at pH 6.5 after 48 hrs by UHPLC analysis. The series is classed as ADME. To be noted: read-out: Therm_solubility.
Series [8] is described as follows: Half life in Sprague-Dawley rat at 1 mg/kg, iv measured after 24 hrs. The series is classed as ADME, organism-based. To be noted: in vivo.
A short description of series [9]: Volume of distribution at steady-state in Sprague-Dawley rat at 1 mg/kg, iv measured after 24 hrs. The series is classed as ADME, organism-based. To be noted: in vivo, read-out: Vdss.
A short description of series [10]: Unbound plasma clearance in Sprague-Dawley rat at 1 mg/kg, iv measured after 24 hrs. The series is classed as ADME, organism-based. To be noted: in vivo.
Series [11] is described as follows: Drug uptake in IL17A-induced CXCL1 secretion in C57BL/6 mouse at 10 mg/kg, iv pretreated 1 hr before IL17A challenge measured after 2 hrs. The series is classed as ADME, organism-based. To be noted: in vivo, read-out: Drug uptake.
Series [12] is described as follows: Metabolic stability in rat liver microsomes assessed as unbound intrinsic clearance. The series is classed as ADME, Microsome.
The nature of series [13]: Plasma clearance in Sprague-Dawley rat at 1 mg/kg, iv measured after 24 hrs. The series is classed as ADME, organism-based.

Turning to `C[C@H](NC(=O)[C@]1(NC(=O)c2cc(Cl)c(Cl)[nH]2)CO[C@H](c2ccccc2)C1)c1cn2c(=O)n(C)cc(F)c2n1`, the values for the CL free in series [1] and in [2] were 1830 mL/min/kg and 61.7 mL/min/kg, respectively. In addition, the solubility thermodynamic at 48 h in series [3] is 0.82 µM (≈ 0.46 µg/mL). Also, in series [4], the bioavailability (in general, the share of a dose that reaches the circulation, judged against a reference dose that is usually intravenous) was determined as 22%. Moreover, the clearance – broadly, a measure of how efficiently the substance is removed, as volume per time – in series [5] is 33.3 mL/min/kg.

Consider `O=C(N[C@@H](CCc1ccccc1)C(=O)NCc1ncc2c(n1)CCC2)c1cc(Cl)c(Cl)[nH]1`, for which, in series [2], the CL free came out at 1100 mL/min/kg. Further, the solubility thermodynamic at 48 h in [3] came out at 27 µM (≈ 12.8 µg/mL).

Turning to `C[C@H](NC(=O)[C@H](CCc1ccccc1)NC(=O)c1cc(Cl)c(Cl)[nH]1)c1ncccn1`, in [2], the CL free was 200 mL/min/kg. Besides, the solubility thermodynamic at 48 h in series [3] came out at 1.7 µM (≈ 0.759 µg/mL).

On to `C[C@H](NC(=O)[C@H](CCc1ccccc1)NC(=O)c1cc(Cl)c(Cl)[nH]1)c1cn2c(=O)n(C)cc(F)c2n1`, for which the figures for the CL free in series [1] and in series [2] were 4830 mL/min/kg and 163 mL/min/kg, respectively. For the same compound, the solubility thermodynamic at 48 h in series [3] came out at 4.5 µM (≈ 2.4 µg/mL). The same compound displayed a bioavailability in series [6] of 1.6%. The compound further showed a clearance in [5] of 45 mL/min/kg.

As for `C[C@H](NC(=O)[C@]1(NC(=O)c2cc(Cl)c(Cl)[nH]2)CO[C@H](c2ccccc2)C1)c1ncc2c(n1)CN(C1CCN(C)CC1)C2`, the solubility thermodynamic at 48 h is 460 µg/mL (≈ 751 µM) in series [7] and > 1000 µM in [3]. In addition, the CL free was < 45 mL/min/kg in series [2], 102 mL/min/kg in series [10] and < 76.7 mL/min/kg in series [12]. In series [8], the half-life (usually the time needed for the level to fall by half in the phase considered) is 3.6 h. The Vd in [9] amounted to 5 L/kg. Moreover, the concentration at 1 h in [11] worked out at 108 ng/mL. In series [13], the clearance was 18.3 mL/min/kg.

Turning to `O=C(N[C@@H](CCc1ccccc1)C(=O)NCc1ncc(C2CCOCC2)cn1)c1cc(Cl)c(Cl)[nH]1`, the CL free in series [2] was 333 mL/min/kg. The solubility thermodynamic at 48 h in series [3] amounted to 2.5 µM (≈ 1.29 µg/mL).

As for `COCc1ccc([C@@H]2C[C@](NC(=O)c3cc(Cl)c(Cl)[nH]3)(C(=O)N[C@@H](C)c3ncc4c(n3)CN(C3CCN(C)CC3)C4)CO2)cc1`, the CL free in series [2] is < 31.7 mL/min/kg; in series [10] it was 250 mL/min/kg; in series [12] it was < 53.3 mL/min/kg. The solubility thermodynamic at 48 h in series [3] was determined as 60 µM (≈ 39.4 µg/mL). Also, in [8], the half-life is 1.5 h. Moreover, the Vd in series [9] turned out to be 3.2 L/kg. Moreover, the concentration at 1 h in series [11] is 85 ng/mL. Besides, the clearance in series [13] was 33.3 mL/min/kg.

In the case of `C[C@H](NC(=O)[C@]1(NC(=O)c2cc(Cl)c(Cl)[nH]2)CO[C@H](c2ccccc2)C1)c1ncc2c(n1)COC2`, the solubility thermodynamic at 48 h in series [7] came to 16 µg/mL (≈ 31 µM); in [3], 17 µM (≈ 8.78 µg/mL). In addition, the CL free was found to be 132 mL/min/kg in series [2], 1430 mL/min/kg in series [10] and 1080 mL/min/kg in series [12]. Besides, the half-life in series [8] is 0.47 h. Further, the Vd in series [9] is 1.4 L/kg. The concentration at 1 h in series [11] was 190 ng/mL. The clearance in series [13] is 46.7 mL/min/kg.

For `CN1Cc2cnc(CNC(=O)[C@H](CCc3ccccc3)NC(=O)c3cc(Cl)c(Cl)[nH]3)nc2C1`, the CL free in [2] is 140 mL/min/kg. The solubility thermodynamic at 48 h in series [3] was found to be 1.8 µM (≈ 0.877 µg/mL).

Consider `O=C(N[C@@H](CCc1ccccc1)C(=O)NCc1ncc(CO)cn1)c1cc(Cl)c(Cl)[nH]1`, for which the CL free in series [2] was determined as 71.7 mL/min/kg. Further, the solubility thermodynamic at 48 h in series [3] is 73 µM (≈ 33.8 µg/mL).

For `C[C@H](NC(=O)[C@]1(NC(=O)c2cc(Cl)c[nH]2)CO[C@H](c2ccccc2)C1)c1ncc2c(n1)CN(C1CCN(C)CC1)C2`, the solubility thermodynamic at 48 h in series [7] was 630 µg/mL (≈ 1090 µM); in series [3], 120 µM (≈ 69.4 µg/mL). Further, the results for the CL free in series [2], in series [10] and in [12] were < 35 mL/min/kg, 48.3 mL/min/kg and < 60 mL/min/kg, respectively. This compound also showed a half-life in [8] of 3.3 h. In series [9], the Vd came out at 5.9 L/kg. Moreover, in series [11], the concentration at 1 h came to 68 ng/mL. In series [13], this compound gave a clearance of 21.7 mL/min/kg.

For the compound `O=C(N[C@@H](CCc1ccccc1)C(=O)NCc1ncc2c(n1)COC2)c1cc(Cl)c(Cl)[nH]1`, the CL free in series [2] worked out at 183 mL/min/kg. The solubility thermodynamic at 48 h in series [3] stood at 8 µM (≈ 3.79 µg/mL).

`COCc1cnc(CNC(=O)[C@H](CCc2ccccc2)NC(=O)c2cc(Cl)c(Cl)[nH]2)nc1`: the CL free in series [2] came to 167 mL/min/kg. Moreover, the solubility thermodynamic at 48 h in series [3] amounted to 5.7 µM (≈ 2.72 µg/mL).

On to `C[C@H](NC(=O)[C@]1(NC(=O)c2cc(Cl)c(Cl)[nH]2)CO[C@H](c2ccc(F)cc2)C1)c1ncc2c(n1)CN(C1CCN(C)CC1)C2`, for which the values for the CL free in series [2] and in series [10] were < 36.7 mL/min/kg and 137 mL/min/kg, respectively. Moreover, the solubility thermodynamic at 48 h in [3] came to 510 µM (≈ 322 µg/mL). Moreover, the half-life in series [8] was 3.5 h. The Vd in series [9] was 6.4 L/kg. The concentration at 1 h in series [11] came out at 139 ng/mL. Besides, the clearance in [13] was 21.7 mL/min/kg.

As for `O=C(N[C@@H](CCc1ccccc1)C(=O)NCc1cccnc1)c1cc(Cl)c(Cl)[nH]1`, in series [2], the CL free came to 1300 mL/min/kg. The solubility thermodynamic at 48 h in series [3] stood at 230 µM (≈ 99.2 µg/mL).

In the case of `O=C(N[C@@H](CCc1ccccc1)C(=O)NCc1ncccn1)c1cc(Cl)c(Cl)[nH]1`, the CL free in series [2] worked out at 46.7 mL/min/kg. In [3], the solubility thermodynamic at 48 h came out at 25 µM (≈ 10.8 µg/mL).

For the compound `O=C(N[C@@H](CCc1ccccc1)C(=O)NCc1ccccc1)c1cc(Cl)c(Cl)[nH]1`, in series [2], the CL free amounted to 1530 mL/min/kg. Moreover, the solubility thermodynamic at 48 h in series [3] came out at 145 µM (≈ 62.4 µg/mL).
